Results published in patent US7163689B2, “Intravenous valproate for acute treatment of migraine headache” (priority 1999, dated 2007).
Values joined by “and” are separate entries in the source; they are usually repeats but may differ in a detail not shown here. Equal entries are not always repeated. “Also recorded” adds a separate entry of the source.

Columns and labels:
Assay type in all cases: in vivo, human
[1] = tested on: patients with moderate to severe migraine headaches of duration of 24 to 96 hrs; assay: Pilot study: IV valproate vs IM DHE with metoclopramide for abortive treatment of acute migraine headache (Example 1); details: for % Headache Relief: 5 patients per group; for Headache Severity / Nausea/vomiting / Phonophobia / Photophobia: individual patient; for Headache Severity: grade 0-3; for Nausea/vomiting / Phonophobia / Photophobia: presence
From the text: This Example describes the results of a pilot study using intravenous valproate for abortive treatment of acute migraine headache. • Methods. Patients with established diagnosis of migraine with and without aura were considered for randomization to intravenous (“IV”) valproate (“VPA”) or intramuscular (“IM”) dihydroergotamine (“DHE”) with metoclopramide, also referred to herein as […]®, for patients with moderate to severe migraine headaches of duration of 24 to 96 hrs. Patients received intravenous infusion of 500 mgs of valproate over 30 mins or 1 mg DHE with 10 mgs metoclopramide IM. Headache severity, presence of nausea, phonophobia and photophobia were rated at baseline, 1 hr, 2 hrs, and 4 hrs. Table I and II. There were 5 patients in each group. • Results. Of the 5 patients receiving valproate, 4 of the 5 had response of their headaches from moderate or severe to none or mild at 1 hr, 2 hrs, and 4 hrs. Of the 5 patients receiving DHE, 3 of the 5 patients had headache response to moderate or severe to mild or none at 1 hr, 2 hrs, and 4 hrs. Table III. […] In the DHE group, 2 of 5 had nausea at baseline, and 1 had nausea at 1 hr, 2 hrs, and 4 hrs. Table IVa. […] In the DHE group, 3 of 5 had relief of photophobia at 1 hr, 4 of 5 had relief at 2 hrs and 4 hrs. […] In the DHE group, 2 of 5 had relief of phonophobia at 1 hr, and 3 of 5 had relief of phonophobia at 2 hrs and 4 hrs. Table IVb. • Conclusions. Intravenous valproate is an alternative therapy for abortive treatment of moderate to severe prolonged acute migraine headache. Anti-convulsant mechanisms may be relevant to treatment of headache symptomatology.

[2] = tested on: patients with prolonged moderate to severe migraine; assay: Further expanded study (N=40): Depacon vs DHE preceded by metoclopramide, prolonged moderate to severe migraine (Example 3); details: for Headache Severity (group value, four grade rating) / Number of Patients Who Reported Nausea / Number of Patients Who Reported Phonophobia / Number of Patients Who Reported Photophobia / Responder Rate / Symptom Free patients (no headache or associated symptomatology), % / Symptom Free patients (no headache or associated symptomatology), number: N = 20 per group
From the text: This Example describes a further expanded study and analysis of the effectiveness of intravenous VPA for the treatment of acute migraine headache of significant duration. Patient data from the study described in Examples 1 and 2 have been incorporated and further analyzed in addition to new patient data. • Design and Methods. Participants (N=40) were from age 14 to 74 and were established patients of the Western New England Headache Clinic. Patients called to report the pressure of prolonged moderate to severe migraine. They had no evidence of conditions other than migraine to cause headache and were medically stable. […] Patients received a neurological and general physical examination and filled out a four grade baseline headache rating from developed by Western New England Headache Clinic (see Table 2). The patients then received either 500 mg Depacon™ over 15–30 minutes administered in 100 ccs D5W, or 1 mg DHE intramuscularly preceded by 10 mg metoclopramide intramuscularly. Headache severity and associated symptomatology were rated 1, 2, and 4 hours. Results. A total of 40 patients were randomized, 20 in the Depacon™ group and 20 in the DHE group. Table VII summarizes the number of patients in each group by severity of headache (moderate or severe), demographic data and medication assignment.

[3] = tested on: patients with moderate to severe migraine headaches of duration of 24 to 96 hrs; assay: Pilot study: IV valproate vs IM DHE with metoclopramide for abortive treatment of acute migraine headache (Example 1); details: individual patient, grade 0-3; 24-h; sodium
[4] = tested on: patients with moderate to severe headaches of 24–72 hours duration; assay: Expanded study: IV VPA vs DHE with metoclopramide IM, acute migraine headache (Example 2); details: 24-h

CCCC(CCC)C(=O)[O-].[Na+] [Depacon, valproate sodium] was tested, and the “% experiencing Nausea” value ([1]; 0-h (baseline)) was 80%, the “% experiencing Photophobia” value ([1]; 0-h (baseline)) was 100% and the “% experiencing phonphobia” value ([1]; 0-h (baseline)) was 80%. For the same compound, the “% experiencing Nausea” value ([1]; 1-h) was 20%, the “% experiencing Photophobia” value ([1]; 1-h) was 20% and the “% experiencing phonphobia” value ([1]; 1-h) was 20%. For the same compound, the “% experiencing Nausea” value ([1]; 2-h) was 20%, the “% experiencing Photophobia” value ([1]; 2-h) was 20% and the “% experiencing phonphobia” value ([1]; 2-h) was 20%. For the same compound, the “% experiencing Nausea” value ([1]; 4-h) was 0%, the “% experiencing Photophobia” value ([1]; 4-h) was 0% and the “% experiencing phonphobia” value ([1]; 4-h) was 0%. The “% Headache Relief” value ([1]; 1-h) was 60%, the “% Headache Relief” value ([1]; 2-h) was 100% and the “% Headache Relief” value ([1]; 4-h) was 80%. For the same compound, the “% Headache Relief” value ([1]; 24-h) was 40%, the “% experiencing Nausea” value ([1]; 24-h) was 40% and the “% experiencing Photophobia” value ([1]; 24-h) was 40%. For the same compound, the “% experiencing phonphobia” value ([1]; 24-h) was 40%, the “Headache Severity” value ([1]; 0-h (baseline), Depacon IV 500 mg or DHE 1 mg + Reglan 10 mg, sodium) was 3 (3×) and 2 (2×) and the “Headache Severity” value ([1]; 1-h, sodium) was 1 (2×) and 0 (2×) and 2. For the same compound, the “Headache Severity” value ([1]; 2-h, sodium) was 1 (4×) and 0, the “Headache Severity” value ([1]; 4-h, sodium) was 0 (3×) and 1 and 2 and the Nausea/vomiting ([1]; 0-h (baseline), sodium) was 0. The Phonophobia ([1]; 0-h (baseline), sodium) was 0, the Nausea/vomiting ([1]; 1-h, sodium) was 0 and the Phonophobia ([1]; 1-h, sodium) was 0. The Photophobia ([1]; 1-h, sodium) was 0, the Nausea/vomiting ([1]; 2-h, sodium) was 0 and the Phonophobia ([1]; 2-h, sodium) was 0. It also gave a Photophobia ([1]; 2-h, sodium) of 0, a Nausea/vomiting ([1]; 4-h) of 0 and a Phonophobia ([1]; 4-h) of 0. The Photophobia ([1]; 4-h) was 0, the Nausea/vomiting ([1]; 24-h, sodium) was 0 and the Phonophobia ([1]; 24-h, sodium) was 0. The Photophobia ([1]; 24-h, sodium) was 0, the “patients who had nausea” value ([1]; of 5 patients, 1 hr) was 1 and the “patients who had relief of phonophobia” value ([1]; of 5 patients, 1 hr) was 4 of 5. The “patients who had relief of photophobia” value ([1]; of 5 patients, 1 hr) was 4 of 5, the “patients with response of headache from moderate or severe to none or mild” value (shortened to “patients with response of headache”) ([1]; of 5 patients, 1 hr) was 4 of the 5 and the “patients who had nausea” value ([1]; of 5 patients, 2 hrs) was 1. The “patients who had relief of phonophobia” value ([1]; of 5 patients, 2 hrs) was 4 of 5, the “patients who had relief of photophobia” value ([1]; of 5 patients, 2 hrs) was 4 of 5 and the “patients with response of headache” value ([1]; of 5 patients, 2 hrs) was 4 of the 5. For the same compound, the “patients who had nausea” value ([1]; of 5 patients, 4 hrs) was “all had relief of nausea”, the “patients who had relief of phonophobia” value ([1]; of 5 patients, 4 hrs) was “all had relief” and the “patients who had relief of photophobia” value ([1]; of 5 patients, 4 hrs) was “all had relief”. The “patients with response of headache” value ([1]; of 5 patients, 4 hrs) was 4 of the 5, the “patients who had nausea” value ([1]; of 5 patients, baseline) was 4 of 5 and the “patients who had photophobia” value ([1]; of 5 patients, baseline) was “all had photophobia”. For the same compound, the adverse events ([2]; 20 patients receiving 500 mg Depacon given during 15 to 30 minutes infusion, sodium) was “remarkably free of adverse event; also recorded: no adverse events”, the “% of Patients Who Reported Nausea” value ([2]; 1 hour) was 53% and the “% of Patients Who Reported Phonophobia” value ([2]; 1 hour) was 74%. The “% of Patients Who Reported Photophobia” value ([2]; 1 hour) was 70%, the “% of Patients Who Reported Nausea” value ([2]; 2 hours) was 53% and the “% of Patients Who Reported Phonophobia” value ([2]; 2 hours) was 58%. The “% of Patients Who Reported Photophobia” value ([2]; 2 hours) was 50%, the “% of Patients Who Reported Nausea” value ([2]; 4 hours) was 47% and the “% of Patients Who Reported Phonophobia” value ([2]; 4 hours) was 53%. For the same compound, the “% of Patients Who Reported Photophobia” value ([2]; 4 hours) was 45%, the “% of Patients Who Reported Nausea” value ([2]; Baseline) was 75% and the “% of Patients Who Reported Phonophobia” value ([2]; Baseline) was 95%. For the same compound, the “% of Patients Who Reported Photophobia” value ([2]; Baseline) was 100%, the “Headache Severity (group value, four grade rating)” value ([2]; 1 hour) was 1.8 and the “Number of Patients Who Reported Nausea” value ([2]; 1 hour) was 8. The “Number of Patients Who Reported Phonophobia” value ([2]; 1 hour) was 14, the “Number of Patients Who Reported Photophobia” value ([2]; 1 hour) was 14 and the “Responder Rate” value ([2]; 1 hour) was 50%. The “Headache Severity (group value, four grade rating)” value ([2]; 2 hours) was 1.5, the “Number of Patients Who Reported Nausea” value ([2]; 2 hours) was 8 and the “Number of Patients Who Reported Phonophobia” value ([2]; 2 hours) was 11. For the same compound, the “Number of Patients Who Reported Photophobia” value ([2]; 2 hours) was 10, the “Responder Rate” value ([2]; 2 hours) was 60% and the “Headache Severity (group value, four grade rating)” value ([2]; 4 hours) was 1.4. The “Number of Patients Who Reported Nausea” value ([2]; 4 hours) was 7, the “Number of Patients Who Reported Phonophobia” value ([2]; 4 hours) was 10 and the “Number of Patients Who Reported Photophobia” value ([2]; 4 hours) was 9. For the same compound, the “Responder Rate” value ([2]; 4 hours) was 60%, the “Headache Severity (group value, four grade rating)” value ([2]; Baseline) was 2.7 and the “Number of Patients Who Reported Nausea” value ([2]; Baseline) was 15. The “Number of Patients Who Reported Phonophobia” value ([2]; Baseline) was 19, the “Number of Patients Who Reported Photophobia” value ([2]; Baseline) was 20 and the “Symptom Free patients (no headache or associated symptomatology), %” value ([2]; at 1 hour) was 10%. For the same compound, the “Symptom Free patients (no headache or associated symptomatology), number” value ([2]; at 1 hour) was 2, the “Symptom Free patients (no headache or associated symptomatology), %” value ([2]; at 2 hours) was 15% and the “Symptom Free patients (no headache or associated symptomatology), number” value ([2]; at 2 hours) was 3. For the same compound, the “Symptom Free patients (no headache or associated symptomatology), %” value ([2]; at 4 hours) was 25%, the “Symptom Free patients (no headache or associated symptomatology), number” value ([2]; at 4 hours) was 5 and the “response of associated symptomatology compared with the DHE group” value ([2]; baseline, 1, 2 and 4 hours, P>0.05) was “responded somewhat better, although not statistically significantly”. For the same compound, the “Headache Severity” value [3] was 1 and 2 (2×) and 3 and 0 and the “% experiencing Photophobia” value [4] was 60%.
